Test results reported in patent US11965039B2, “Compstatin analogues and their medical uses” (priority 2018, dated 2024).
pIC50: −log10 of the molar value. Starred links: 1 amine or outer side, 2 acyl side, 3 side chain; linkers in the order of their positions; H or OH if unused. Positions of bridges follow the written chain, without caps; N, C: chain ends. Non-standard residues stand in square brackets, D forms with d. Residues, ends and D or L forms follow the SMILES beside them. Groups on a side chain read outwards from the residue. *: point of attachment. Trp(1-Me) = Cn1cc(C[C@H](N)C(=O)O)c2ccccc21; C18 diacid = O=C(O)CCCCCCCCCCCCCCCCC(=O)*; γGlu = O=C(O)[C@H](CCC(=O)[*:2])N[*:1]; AEEA = NCCOCCOCC(=O)O; Sar = CNCC(=O)O

Test system: classical complement pathway
Experiment: In vitro haemolysis assay (inhibition of classical complement pathway)
Format: cell-based, human
Details: Table 5, different residues at position 3 of Ac-IC(1)XWQDWGEHRC(1)T-NH2; read-out: IC50, CP hemolysis
Description: The in vitro effect of the compounds of the present invention was assessed by measuring their inhibitory effect of the classical complement pathway in a haemolysis assay. Briefly, compounds of the present invention and reference compounds were dissolved in DMSO and diluted in Tris/Casein Assay Buffer (10 mM Tris, 145 mM NaCl, 0.5 mM MgCl2, 0.15 mM CaCl2), and 0.1% W/V Casein, adjusted to pH 7.4) as 9-point serial dilutions in a 96 well plate. Sensitized sheep red blood cells (RBC) coated with rabbit anti-sheep erythrocyte antiserum (Complement Technology, Inc., TX, USA) were washed in Tris/Casein Assay Buffer. […] from each well of diluted compound was added to a 96-well plate containing 50 μL diluted human serum (Complement Technology, Inc., TX, USA) and incubated for 15 minutes at room temperature. The serum dilution factor was optimized for every serum batch to obtain 70-90% of maximal haemolysis using the protocol. Then 50 μL sensitized sheep red blood cells were added to all wells (10^7 per well). After 30 minutes of incubation at 37 QC with gentle agitation, the reaction was stopped by addition of 50 μL Tris STOP Buffer per well (10 mM EDTA, 10 mM Tris, 145 mM NaCl adjusted to pH 7.4). The RBCs were then removed by centrifugation and the resulting supernatant measured for hemolysis by absorbance at 405 nm. The response was normalized relative to a positive and negative control (vehicle) to calculate the IC50 from the concentration response curve using the 4-parameter logistic (4PL) nonlinear model for curve fitting.

Compound | pIC50
Ac-IC(1)XWQDWGEHRC(1)T-NH2 [Beta-Homo-lsoleucine, reference compound] | < 5.00

Same assay, conditions: human serum, sensitized sheep red blood cells; Table 3, given as upper bounds; read-out: IC50, inhibition of hemolysis

Compound | pIC50
CC[C@H](C)[C@H](NC(C)=O)C(=O)N[C@H]1CSSC[C@@H](C(=O)N[C@H](C(=O)N[C@@H](CCC(=O)O)C(=O)NCC(=O)N[C@@H](CCCCN)C(N)=O)[C@@H](C)O)NC(=O)[C@H](CCCNC(=N)N)NC(=O)[C@H](Cc2c[nH]cn2)NC(=O)[C@H](CCC(=O)O)NC(=O)CNC(=O)[C@H](Cc2c[nH]c3ccccc23)NC(=O)[C@H](CC(=O)O)NC(=O)[C@H](CCC(N)=O)NC(=O)[C@H](Cc2c[nH]c3ccccc23)NC(=O)[C@H]([C@@H](C)CC)NC1=O [Compound 39] (Ac-ICIWQDWGEHRCTEGK-NH2; disulfide 2-12) | > 7.00
CC[C@H](C)[C@@H]1NC(=O)[C@@H](NC(=O)[C@H](Cc2ccccc2)NC(=O)[C@H](CCC(=O)O)NC(=O)[C@H](CO)NC(C)=O)CSSC[C@@H](C(=O)N[C@H](C(=O)N[C@@H](CCC(=O)O)C(=O)N[C@@H](CCCCN)C(=O)N[C@@H](CCC(=O)NCC(=O)NCC(=O)NCC(=O)N[C@@H](CCCCNC(=O)CC[C@H](NC(=O)CNC(=O)CC[C@H](NC(=O)CCCCCCCCCCCCCCCCC(=O)O)C(=O)O)C(=O)O)C(N)=O)C(=O)O)[C@@H](C)O)NC(=O)[C@H](CCCNC(=N)N)NC(=O)[C@H](Cc2c[nH]cn2)NC(=O)[C@H](CCC(=O)O)NC(=O)CNC(=O)[C@H](Cc2c[nH]c3ccccc23)NC(=O)[C@H](CC(=O)O)NC(=O)[C@H](CCC(N)=O)NC(=O)[C@H](Cc2cn(C)c3ccccc23)NC1=O [Compound 133] (Ac-SEFCI[Trp(1-Me)]QDWGEHRCTEK[γGlu]GGGK([γGlu-Gly-γGlu-C18 diacid])-NH2; disulfide 4-14) | > 7.00
CC[C@H](C)[C@@H]1NC(=O)[C@@H](NC(=O)[C@H](Cc2ccc(O)cc2)NC(=O)[C@H](C)NC(=O)[C@H](CO)NC(=O)CNC(=O)[C@H](CCC(=O)O)NC(C)=O)CSSC[C@@H](C(=O)N(C)CC(=O)N[C@@H](CCC(=O)O)C(N)=O)NC(=O)[C@H](CCCNC(=N)N)NC(=O)[C@H](Cc2c[nH]cn2)NC(=O)[C@H](CCC(=O)O)NC(=O)CNC(=O)[C@H](Cc2c[nH]c3ccccc23)NC(=O)[C@H](CCC(=O)O)NC(=O)[C@H](CCC(N)=O)NC(=O)[C@H](Cc2cn(C)c3ccccc23)NC1=O [Compound 70] (Ac-EGSAYCI[Trp(1-Me)]QEWGEHRC[Sar]E-NH2; disulfide 6-16) | > 7.00
CC[C@H](C)[C@H](NC(C)=O)C(=O)N[C@H]1CSSC[C@@H](C(=O)N[C@H](C(=O)N[C@@H](CCC(=O)O)C(=O)NCC(=O)N[C@@H](CCCCNC(=O)COCCOCCNC(=O)COCCOCCNC(=O)CC[C@H](NC(=O)CCCCCCCCCCCCCCCCC(=O)O)C(=O)O)C(N)=O)[C@@H](C)O)NC(=O)[C@H](CCCNC(=N)N)NC(=O)[C@H](Cc2c[nH]cn2)NC(=O)[C@H](CCC(=O)O)NC(=O)CNC(=O)[C@H](Cc2c[nH]c3ccccc23)NC(=O)[C@H](CC(=O)O)NC(=O)[C@H](CCC(N)=O)NC(=O)[C@H](Cc2c[nH]c3ccccc23)NC(=O)[C@H]([C@@H](C)CC)NC1=O [Compound 96] (Ac-ICIWQDWGEHRCTEGK([AEEA-AEEA-γGlu-C18 diacid])-NH2; disulfide 2-12) | > 6.00
CC[C@H](C)[C@@H]1NC(=O)[C@@H](NC(=O)[C@@H](NC(=O)[C@H](CCC(=O)O)NC(C)=O)[C@@H](C)CC)CSSC[C@@H](C(=O)N[C@H](C(=O)N[C@@H](CCC(=O)O)C(=O)NCC(=O)N[C@@H](CCC(=O)O)C(N)=O)[C@@H](C)O)NC(=O)[C@H](CCCNC(=N)N)NC(=O)[C@H](Cc2c[nH]cn2)NC(=O)[C@H](CCC(=O)O)NC(=O)CNC(=O)[C@H](Cc2c[nH]c3ccccc23)NC(=O)[C@H](CC(=O)O)NC(=O)[C@H](CCC(N)=O)NC(=O)[C@H](Cc2c[nH]c3ccccc23)NC1=O [Compound 34] (Ac-EICIWQDWGEHRCTEGE-NH2; disulfide 3-13) | > 6.60
CC[C@H](C)[C@@H]1NC(=O)[C@@H](NC(=O)CN(C)C(=O)[C@H](CCC(=O)O)NC(=O)CNC(C)=O)CSSC[C@@H](C(=O)N[C@H](C(=O)N[C@@H](CCC(=O)O)C(=O)N[C@@H](C)C(N)=O)[C@@H](C)O)NC(=O)[C@H](CCCNC(=N)N)NC(=O)[C@H](Cc2c[nH]cn2)NC(=O)[C@H](CCC(=O)O)NC(=O)CNC(=O)[C@H](Cc2c[nH]c3ccccc23)NC(=O)[C@H](CC(=O)O)NC(=O)[C@H](CCC(N)=O)NC(=O)[C@H](Cc2cn(C)c3ccccc23)NC1=O [Compound 88] (Ac-GE[Sar]CI[Trp(1-Me)]QDWGEHRCTEA-NH2; disulfide 4-14) | > 7.00
CC[C@H](C)[C@H](NC(C)=O)C(=O)N[C@H]1CSSC[C@@H](C(=O)N[C@H](C(=O)N[C@@H](CCC(=O)O)C(=O)NCC(=O)N[C@@H](CCC(=O)O)C(=O)N[C@@H](CCCCNC(=O)COCCOCCNC(=O)COCCOCCNC(=O)CC[C@H](NC(=O)CCCCCCCCCCCCCCCCC(=O)O)C(=O)O)C(N)=O)[C@@H](C)O)NC(=O)[C@H](CCCNC(=N)N)NC(=O)[C@H](Cc2c[nH]cn2)NC(=O)[C@H](CCC(=O)O)NC(=O)CNC(=O)[C@H](Cc2c[nH]c3ccccc23)NC(=O)[C@H](CC(=O)O)NC(=O)[C@H](CCC(N)=O)NC(=O)[C@H](Cc2c[nH]c3ccccc23)NC(=O)[C@H]([C@@H](C)CC)NC1=O [Compound 97] (Ac-ICIWQDWGEHRCTEGEK([AEEA-AEEA-γGlu-C18 diacid])-NH2; disulfide 2-12) | > 6.60
CC[C@H](C)[C@H](NC(C)=O)C(=O)N[C@H]1CSSC[C@@H](C(=O)N[C@H](C(=O)NCC(=O)N[C@@H](C)C(=O)N[C@@H](CCC(=O)O)C(=O)N[C@@H](CO)C(N)=O)[C@@H](C)O)NC(=O)[C@H](CCCNC(=N)N)NC(=O)[C@H](Cc2c[nH]cn2)NC(=O)[C@H](C)NC(=O)CNC(=O)[C@H](Cc2c[nH]c3ccccc23)NC(=O)[C@H](CCCCN)NC(=O)[C@H](CCC(N)=O)NC(=O)[C@H](Cc2c[nH]c3ccccc23)NC(=O)[C@H]([C@@H](C)CC)NC1=O [Compound 8] (Ac-ICIWQKWGAHRCTGAES-NH2; disulfide 2-12) | > 6.30
CC[C@H](C)[C@@H]1NC(=O)[C@@H](NC(=O)[C@H](Cc2ccc(O)cc2)NC(=O)[C@H](CCC(=O)O)NC(=O)[C@H](CO)NC(C)=O)CSSC[C@@H](C(=O)N(C)CC(=O)N[C@@H](CCC(=O)O)C(=O)NCC(=O)N[C@@H](CCC(=O)O)C(=O)NCCOCCOCC(=O)NCCOCCOCC(=O)N[C@@H](CCCCNC(=O)CC[C@H](NC(=O)CNC(=O)CC[C@H](NC(=O)CCCCCCCCCCCCCCCCC(=O)O)C(=O)O)C(=O)O)C(N)=O)NC(=O)[C@H](CCCNC(=N)N)NC(=O)[C@H](Cc2c[nH]cn2)NC(=O)[C@H](CCC(=O)O)NC(=O)CNC(=O)[C@H](Cc2c[nH]c3ccccc23)NC(=O)[C@H](CCC(=O)O)NC(=O)[C@H](CCC(N)=O)NC(=O)[C@H](Cc2cn(C)c3ccccc23)NC1=O [Compound 125] (Ac-SEYCI[Trp(1-Me)]QEWGEHRC[Sar]EGE[AEEA][AEEA]K([γGlu-Gly-γGlu-C18 diacid])-NH2; disulfide 4-14) | > 6.30
CC[C@H](C)[C@@H]1NC(=O)[C@@H](NC(=O)[C@H](Cc2ccccc2)NC(=O)[C@H](CCC(=O)O)NC(=O)[C@H](CO)NC(C)=O)CSSC[C@@H](C(=O)N(C)CC(=O)N[C@@H](CCC(=O)O)C(=O)NCC(=O)N[C@@H](C)C(=O)N[C@@H](CCCCNC(=O)COCCOCCNC(=O)CC[C@H](NC(=O)COCCOCCNC(=O)CNC(=O)CC[C@H](NC(=O)CCCCCCCCCCCCCCCCC(=O)O)C(=O)O)C(=O)O)C(N)=O)NC(=O)[C@H](CCCNC(=N)N)NC(=O)[C@H](Cc2c[nH]cn2)NC(=O)[C@H](CCC(=O)O)NC(=O)CNC(=O)[C@H](Cc2c[nH]c3ccccc23)NC(=O)[C@H](CCC(=O)O)NC(=O)[C@H](CCC(N)=O)NC(=O)[C@H](Cc2cn(C)c3ccccc23)NC1=O [Compound 120] (Ac-SEFCI[Trp(1-Me)]QEWGEHRC[Sar]EGAK([AEEA-γGlu-AEEA-Gly-γGlu-C18 diacid])-NH2; disulfide 4-14) | > 6.60

Same assay, conditions: human serum, sensitized sheep red blood cells; Table 4, valine 3 vs isoleucine 3 pairs; read-out: CP hemolysis IC50

Compound | pIC50
CC[C@H](C)[C@H](NC(=O)[C@H](C)NC(=O)[C@H](CO)NC(=O)CNC(=O)[C@H](CCC(=O)O)NC(C)=O)C(=O)N[C@H]1CSSC[C@@H](C(=O)N(C)CC(=O)N[C@@H](CCC(=O)O)C(N)=O)NC(=O)[C@H](CCCNC(=N)N)NC(=O)[C@H](Cc2c[nH]cn2)NC(=O)[C@H](CCC(=O)O)NC(=O)CNC(=O)[C@H](Cc2c[nH]c3ccccc23)NC(=O)[C@H](CC(=O)O)NC(=O)[C@H](CCC(N)=O)NC(=O)[C@H](Cc2c[nH]c3ccccc23)NC(=O)[C@H](C(C)C)NC1=O [H, reference compound] (Ac-EGSAICVWQDWGEHRC[Sar]E-NH2; disulfide 6-16) | 6.48
CC[C@H](C)[C@H](NC(C)=O)C(=O)N[C@H]1CSSC[C@@H](C(=O)N[C@H](C(=O)N[C@@H](CCC(=O)O)C(=O)NCC(=O)N[C@@H](CCC(=O)O)C(N)=O)[C@@H](C)O)NC(=O)[C@H](CCCNC(=N)N)NC(=O)[C@H](Cc2c[nH]cn2)NC(=O)[C@H](CCC(=O)O)NC(=O)CNC(=O)[C@H](Cc2c[nH]c3ccccc23)NC(=O)[C@H](CC(=O)O)NC(=O)[C@H](CCC(N)=O)NC(=O)[C@H](Cc2c[nH]c3ccccc23)NC(=O)[C@H](C(C)C)NC1=O [J, reference compound] (Ac-ICVWQDWGEHRCTEGE-NH2; disulfide 2-12) | 6.62
